# Experiments:
# [1] = system: other kinases of the conserved cysteine panel (BMX, BTK, ITK, TXK, TEC, BLK, EGFR, ERBB4, ERBB2); assay: Cys-containing kinase family panel, kinases other than JAK3 taken together; assay type: biochemical; settings: 1 µM
# Source text: The assay protocol guides are commercially available from ChemPartner.
# ITK = target: T1, ITK (Homo sapiens, UniProt Q08881); assay: Cys-containing kinase family panel (EurofinsCerep); assay type: biochemical
# T1 construct: EurofinsCerep (contract assay service)
# [2] = system: IL-6-induced STAT3 phosphorylation (JAK1); assay: IL-6-induced pSTAT3 in total lymphocytes in hPBMCs, flow cytometry; assay type: cell-based, human
# [3] = system: DBA/1 mice with collagen-induced arthritis; assay: Collagen-induced arthritis mouse model: clinical score, histology, safety; assay type: in vivo; settings: CIA mice; for group mean histological severity score: model group 3.8, grades 0-4
# Experimental: The animal protocol was approved by the Animal Care and Use Committee of Sichuan University in China (IACUC number: 20100318). DBA/1 J mice (male, 6 weeks old) were obtained from Jackson Laboratory (Bar Harbor, ME). One day before the start of the experiment, CII solution (2 mg/ml) was prepared with 0.05 M acetic acid and stored at 4 °C. Just before the immunization, equal volumes of IFA and CII were mixed by a homogenizer in a precooled glass bottle in an ice water bath. Arthritis was induced in 8-week old male DBA/1 mice by immunizations with a 1:1 emulsion of bovine type II collagen (Chondrex) and Freund’s complete adjuvant (Sigma-Aldrich) on day 0 and with a 1:1 emulsion of bovine type II collagen in Freund’s incomplete adjuvant (Sigma-Aldrich) on day 21. […] On the day treatment was initiated, the mice were randomly assigned to controls (no collagen injection plus vehicle; […]. Mice were scored daily for signs of arthritis for 33 days. CIA development was inspected three times per week, and the inflammation of the four paws was graded from 0 to 4 (grade 0, paws with no swelling or focal redness; grade 1, paws with swelling of finger joints; grade 2, paws with a mild swelling of the ankle or wrist joints; grade 3, paws with severe inflammation of the entire paw; and grade 4, paws with deformity or ankylosis). Each paw was graded, and the four scores were totalled so that the possible maximum score per mouse was 16.
# DBA1/J mice were sacrificed on day 33 after treatment and ankle joints were removed and fixed with 4% paraformaldehyde for more than 48 h. The joints were decalcified in EDTA buffer for 21 days and then embedded in paraffin blocks. Joint sections were stained with H&E or safranin O-fast green. Histological changes were examined under microscope using methods modified from McKew et al.[43] as follows: grade 0 = no abnormal findings; grade 1 = synoviocyte hypertrophy, slight synovial membrane fibrosis, slight-to-mild inflammatory cell infiltrates into the synovial membrane/articular capsule and/or joint space; grade 2 = grade 1 plus mild-to-moderate inflammatory cell infiltrates, pannus formation (if present) minimal with superficial cartilage erosion; grade 3 = grade 2 plus marked inflammatory cell infiltrates and fibrosis, mild-to-severe erosion of the cartilage extending into the subchondral bone; and grade 4 = loss of joint integrity through erosion or destruction with bone remodelling, massive inflammatory cell infiltrates, fibrosis, and ankylosis.
# [4] = system: JAK-STAT pathway in joints of CIA mice; assay: JAK/STAT phosphorylation in joint tissue of CIA mice, Western blot; assay type: in vivo, mouse; settings: dose-dependent
# Source text: Proteins were visualized with enhanced chemiluminescence.
# FGFR1 = target: T2, FGFR1 (Homo sapiens, UniProt P11362); assay: Eurofins Kinase Profiler panel; assay type: biochemical; settings: read-out: % inhibition (1μM), DMSO control=100%, lower=stronger
# T2 construct: purchased Eurofins Pharma Discovery Services UK Limited (Kinase Profiler screening platform)
# ACK1 = target: T3, ACK1 (Homo sapiens, UniProt Q07912); assay: Eurofins Kinase Profiler panel; assay type: biochemical; settings: read-out: % inhibition (1μM), DMSO control=100%, lower=stronger
# T3 construct: purchased Eurofins KinaseProfiler (Eurofins Pharma Discovery Services UK, Dundee); JAK3 also ChemPartner
# JAK3 = target: T4, JAK3 (Homo sapiens, UniProt P52333); assay: Cys-containing kinase family panel (EurofinsCerep); assay type: biochemical
# T4 construct: ChemPartner (contract assay service)
# T4 sequence (P52333 1-1124): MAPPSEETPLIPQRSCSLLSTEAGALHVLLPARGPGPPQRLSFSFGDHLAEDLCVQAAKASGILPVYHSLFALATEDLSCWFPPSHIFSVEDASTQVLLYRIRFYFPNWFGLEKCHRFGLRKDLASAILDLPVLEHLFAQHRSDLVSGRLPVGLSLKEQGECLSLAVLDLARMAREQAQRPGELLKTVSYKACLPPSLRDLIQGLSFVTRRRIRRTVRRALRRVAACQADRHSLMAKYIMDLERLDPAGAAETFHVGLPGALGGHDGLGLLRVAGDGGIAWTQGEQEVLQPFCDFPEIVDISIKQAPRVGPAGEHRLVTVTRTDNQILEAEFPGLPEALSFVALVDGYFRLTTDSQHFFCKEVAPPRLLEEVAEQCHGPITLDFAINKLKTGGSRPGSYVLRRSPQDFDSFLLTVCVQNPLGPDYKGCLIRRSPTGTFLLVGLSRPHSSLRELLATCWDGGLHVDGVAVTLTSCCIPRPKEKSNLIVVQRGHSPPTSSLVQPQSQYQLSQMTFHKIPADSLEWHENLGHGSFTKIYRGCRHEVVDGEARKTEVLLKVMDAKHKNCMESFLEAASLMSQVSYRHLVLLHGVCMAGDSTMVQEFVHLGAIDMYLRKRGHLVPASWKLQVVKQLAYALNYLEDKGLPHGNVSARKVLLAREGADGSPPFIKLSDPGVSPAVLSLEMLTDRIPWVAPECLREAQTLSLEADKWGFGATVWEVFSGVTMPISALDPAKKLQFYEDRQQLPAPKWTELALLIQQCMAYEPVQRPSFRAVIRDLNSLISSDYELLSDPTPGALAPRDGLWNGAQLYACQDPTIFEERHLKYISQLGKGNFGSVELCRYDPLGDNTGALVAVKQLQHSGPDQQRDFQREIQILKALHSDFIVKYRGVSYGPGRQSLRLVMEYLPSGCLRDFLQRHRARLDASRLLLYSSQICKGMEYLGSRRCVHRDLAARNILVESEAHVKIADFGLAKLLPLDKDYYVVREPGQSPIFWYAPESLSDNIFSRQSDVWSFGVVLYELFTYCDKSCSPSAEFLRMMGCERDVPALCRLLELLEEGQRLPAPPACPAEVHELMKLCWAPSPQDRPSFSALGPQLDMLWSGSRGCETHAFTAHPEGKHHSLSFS
# CDK1 = target: T5, CDK1 (Homo sapiens, UniProt P06493); assay: Eurofins Kinase Profiler panel; assay type: biochemical; settings: read-out: % inhibition (1μM), DMSO control=100%, lower=stronger
# T5 construct: purchased Eurofins KinaseProfiler (Eurofins Pharma Discovery Services UK, Dundee); JAK3 also ChemPartner
# [5] = system: panel of 81 representative kinases; settings: 1 μM
# Flt3 = target: T6, Flt3 (Homo sapiens, UniProt P36888); assay: Eurofins Kinase Profiler panel; assay type: biochemical; settings: read-out: % inhibition (1μM), DMSO control=100%, lower=stronger
# T6 construct: purchased Eurofins Pharma Discovery Services UK Limited (Kinase Profiler screening platform)
# T6 sequence (P36888 27-993): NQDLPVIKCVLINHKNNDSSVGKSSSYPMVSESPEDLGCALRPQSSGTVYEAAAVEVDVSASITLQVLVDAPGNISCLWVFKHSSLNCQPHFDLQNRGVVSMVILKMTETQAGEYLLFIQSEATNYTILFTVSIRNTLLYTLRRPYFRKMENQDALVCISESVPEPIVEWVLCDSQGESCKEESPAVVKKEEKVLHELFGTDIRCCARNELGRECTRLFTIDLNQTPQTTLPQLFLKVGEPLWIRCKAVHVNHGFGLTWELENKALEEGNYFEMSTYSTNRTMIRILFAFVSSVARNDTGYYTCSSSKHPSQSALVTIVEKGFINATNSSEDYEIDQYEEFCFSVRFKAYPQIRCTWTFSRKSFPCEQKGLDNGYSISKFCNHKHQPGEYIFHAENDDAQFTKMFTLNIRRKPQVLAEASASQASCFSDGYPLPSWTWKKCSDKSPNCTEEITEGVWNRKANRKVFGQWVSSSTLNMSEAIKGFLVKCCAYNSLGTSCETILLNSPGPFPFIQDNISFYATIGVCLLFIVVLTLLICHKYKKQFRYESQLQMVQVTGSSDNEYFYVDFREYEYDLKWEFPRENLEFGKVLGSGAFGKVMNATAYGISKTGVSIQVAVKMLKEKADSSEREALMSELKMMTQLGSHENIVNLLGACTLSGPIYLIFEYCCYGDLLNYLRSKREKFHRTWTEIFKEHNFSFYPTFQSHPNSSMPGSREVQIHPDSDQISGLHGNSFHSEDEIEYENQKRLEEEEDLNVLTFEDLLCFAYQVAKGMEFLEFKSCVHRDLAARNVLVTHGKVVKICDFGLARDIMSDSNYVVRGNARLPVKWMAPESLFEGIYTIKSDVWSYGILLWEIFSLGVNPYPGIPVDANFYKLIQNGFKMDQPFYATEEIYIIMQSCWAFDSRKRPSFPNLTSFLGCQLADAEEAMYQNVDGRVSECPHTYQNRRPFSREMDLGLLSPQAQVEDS
# T2 sequence (P11362 22-822): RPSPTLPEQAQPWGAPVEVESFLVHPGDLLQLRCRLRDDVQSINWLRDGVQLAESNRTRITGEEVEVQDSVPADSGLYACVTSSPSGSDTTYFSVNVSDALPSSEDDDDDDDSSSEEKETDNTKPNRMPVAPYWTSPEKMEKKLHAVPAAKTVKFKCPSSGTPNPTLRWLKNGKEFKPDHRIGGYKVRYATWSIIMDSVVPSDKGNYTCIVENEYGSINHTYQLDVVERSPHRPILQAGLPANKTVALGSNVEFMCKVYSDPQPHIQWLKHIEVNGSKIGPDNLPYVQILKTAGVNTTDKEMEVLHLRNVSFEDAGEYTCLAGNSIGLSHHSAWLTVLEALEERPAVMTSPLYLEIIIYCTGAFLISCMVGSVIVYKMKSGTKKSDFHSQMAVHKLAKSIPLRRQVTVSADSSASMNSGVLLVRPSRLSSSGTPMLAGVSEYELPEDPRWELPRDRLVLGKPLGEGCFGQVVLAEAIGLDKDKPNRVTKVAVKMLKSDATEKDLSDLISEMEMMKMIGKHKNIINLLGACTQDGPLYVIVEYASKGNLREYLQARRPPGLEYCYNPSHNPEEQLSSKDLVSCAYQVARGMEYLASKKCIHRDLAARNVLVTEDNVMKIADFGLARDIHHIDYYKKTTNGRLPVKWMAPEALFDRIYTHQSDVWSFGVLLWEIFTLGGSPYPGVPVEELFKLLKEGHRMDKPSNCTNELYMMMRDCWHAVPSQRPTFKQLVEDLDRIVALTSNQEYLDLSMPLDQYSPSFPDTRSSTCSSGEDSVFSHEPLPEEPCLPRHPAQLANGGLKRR
# T3 sequence (Q07912 whole entry): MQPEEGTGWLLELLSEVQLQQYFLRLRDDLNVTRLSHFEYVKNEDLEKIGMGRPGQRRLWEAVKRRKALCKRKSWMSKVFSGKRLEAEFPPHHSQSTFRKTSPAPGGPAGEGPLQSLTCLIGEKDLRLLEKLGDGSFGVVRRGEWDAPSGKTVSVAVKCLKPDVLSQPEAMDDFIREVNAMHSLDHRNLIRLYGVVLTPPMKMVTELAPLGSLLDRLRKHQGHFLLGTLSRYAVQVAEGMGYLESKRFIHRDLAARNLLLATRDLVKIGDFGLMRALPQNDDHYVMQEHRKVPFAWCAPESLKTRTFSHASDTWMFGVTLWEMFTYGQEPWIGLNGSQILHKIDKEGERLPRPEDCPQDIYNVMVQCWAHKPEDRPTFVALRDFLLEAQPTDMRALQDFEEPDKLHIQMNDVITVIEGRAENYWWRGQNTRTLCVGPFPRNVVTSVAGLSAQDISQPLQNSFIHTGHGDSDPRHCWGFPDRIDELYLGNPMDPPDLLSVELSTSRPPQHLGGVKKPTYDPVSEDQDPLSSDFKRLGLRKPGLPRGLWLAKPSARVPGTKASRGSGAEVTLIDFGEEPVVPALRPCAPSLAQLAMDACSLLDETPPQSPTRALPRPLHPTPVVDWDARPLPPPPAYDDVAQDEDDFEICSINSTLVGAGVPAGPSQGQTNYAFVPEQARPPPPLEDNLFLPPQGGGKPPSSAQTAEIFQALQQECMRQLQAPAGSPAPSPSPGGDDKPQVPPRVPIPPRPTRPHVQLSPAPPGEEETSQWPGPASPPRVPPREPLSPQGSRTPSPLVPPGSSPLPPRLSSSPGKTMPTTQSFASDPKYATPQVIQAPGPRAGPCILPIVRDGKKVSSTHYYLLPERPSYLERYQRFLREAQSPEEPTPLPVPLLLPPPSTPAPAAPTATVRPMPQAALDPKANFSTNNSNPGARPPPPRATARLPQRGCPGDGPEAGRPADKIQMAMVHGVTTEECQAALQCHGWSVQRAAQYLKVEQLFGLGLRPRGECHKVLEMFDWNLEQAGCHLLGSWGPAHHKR
# T5 sequence (P06493 whole entry): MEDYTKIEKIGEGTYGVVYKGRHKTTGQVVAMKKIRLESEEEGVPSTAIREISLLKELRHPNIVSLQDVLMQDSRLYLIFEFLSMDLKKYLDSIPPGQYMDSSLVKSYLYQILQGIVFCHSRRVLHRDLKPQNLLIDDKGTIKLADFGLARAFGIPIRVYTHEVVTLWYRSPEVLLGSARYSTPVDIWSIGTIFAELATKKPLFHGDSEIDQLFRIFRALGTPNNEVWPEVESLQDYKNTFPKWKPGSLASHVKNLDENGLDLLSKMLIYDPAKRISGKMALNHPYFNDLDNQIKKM
# T5 sequence (P14635 whole entry partner): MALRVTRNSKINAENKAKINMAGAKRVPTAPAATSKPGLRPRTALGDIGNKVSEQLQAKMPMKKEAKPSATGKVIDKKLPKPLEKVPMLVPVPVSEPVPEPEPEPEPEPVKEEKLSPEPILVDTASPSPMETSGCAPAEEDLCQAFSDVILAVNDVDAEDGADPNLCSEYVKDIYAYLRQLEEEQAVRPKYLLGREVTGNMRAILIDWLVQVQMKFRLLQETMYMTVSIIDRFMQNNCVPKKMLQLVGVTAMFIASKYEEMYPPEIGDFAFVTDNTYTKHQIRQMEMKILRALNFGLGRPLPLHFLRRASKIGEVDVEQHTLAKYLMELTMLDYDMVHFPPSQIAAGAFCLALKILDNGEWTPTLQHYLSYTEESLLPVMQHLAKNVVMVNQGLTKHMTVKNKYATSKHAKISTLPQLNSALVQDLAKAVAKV
# T1 sequence (Q08881 whole entry): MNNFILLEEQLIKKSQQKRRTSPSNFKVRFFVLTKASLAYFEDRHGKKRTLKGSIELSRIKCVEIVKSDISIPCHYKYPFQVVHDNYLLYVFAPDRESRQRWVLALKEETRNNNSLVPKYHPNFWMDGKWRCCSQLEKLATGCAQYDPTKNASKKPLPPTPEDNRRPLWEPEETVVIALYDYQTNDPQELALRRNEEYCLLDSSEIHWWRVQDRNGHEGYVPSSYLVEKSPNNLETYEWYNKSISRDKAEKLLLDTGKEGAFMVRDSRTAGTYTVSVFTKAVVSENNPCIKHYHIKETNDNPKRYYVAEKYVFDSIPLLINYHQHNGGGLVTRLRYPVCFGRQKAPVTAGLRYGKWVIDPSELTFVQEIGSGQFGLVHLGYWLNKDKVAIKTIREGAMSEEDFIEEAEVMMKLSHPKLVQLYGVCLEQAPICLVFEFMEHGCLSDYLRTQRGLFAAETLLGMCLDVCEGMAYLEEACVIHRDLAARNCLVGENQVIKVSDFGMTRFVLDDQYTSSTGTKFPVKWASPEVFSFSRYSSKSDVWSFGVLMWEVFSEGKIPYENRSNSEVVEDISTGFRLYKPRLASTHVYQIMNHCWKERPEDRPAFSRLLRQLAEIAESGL
compound,measurement,setting,value
C=CC(=O)N[C@@H]1CCCN(c2ncnc3[nH]ccc23)C1 [RB1],inhibition of other kinases of the conserved cysteine panel,[1],less than 15%
same,inhibition at 1 µM,ITK,-5.9%
same,IC50,"[2]; Homo sapiens, Lymphocyte, hPBMC total lymphocytes, trigger IL-6, readout pSTAT3, JAK1",> 40 µM
same,Selectivity JAK1/JAK3,"[2]; hPBMC, IL-6 pSTAT3 over IL-2 pSTAT5",>400 fold
same,H&E analysis of the major organs,[3],no significant side effects
same,body weight during treatment,[3],no fluctuations
same,group mean histological severity score,[3]; 10 mg/kg,2.5
same,group mean histological severity score,[3]; 30 mg/kg,1.7
same,group mean histological severity score,[3]; 100 mg/kg,0.9
same,arthritis (clinical) scores,"[3]; p < 0.05 at 10 mg/kg, p < 0.001 at 30 and 60 mg/kg (so in the source)",lower arthritis scores than untreated CIA mice
same,phosphorylation status of JAKs and STATs in joint tissue,[4],"hypo-phosphorylation of JAK3, STAT1 and STAT3"
same,activity at 1 µM,FGFR1,80%
same,activity at 1 µM,ACK1,34%
same,inhibition at 1 µM,JAK3,99.1%
same,activity at 1 µM,CDK1,96%
same,selectivity score S(1),[5]; kinases with ctrl% < 1% / kinases tested,0.012
same,selectivity score S(10),[5]; kinases with ctrl% < 10% / kinases tested,0.012
same,selectivity score S(35),[5]; kinases with ctrl% < 35% / kinases tested,0.086
same,activity at 1 µM,Flt3,75%
